Paper PMC11562385 (RSC Chemical Biology, 2024)
Read-outs that look alike come from different tables or passages of the source. Each block holds one compound with its values, some of them ahead of it. Square brackets hold non-standard residues; d marks the D form. Peptide text beside a SMILES is read from it. * marks the point of attachment. Dab = NCC[C@H](N)C(=O)O; Dap = NC[C@H](N)C(=O)O; Acryloyl = C=CC(=O)*

Key:
PD1:PDL1 interaction = molecular target: T1, PD1:PDL1 interaction (Homo sapiens, UniProt Q15116); test: PD1/PDL1 immunoblocking ELISA (BPS Bioscience kit cat # 72005); format: binding
T1 construct: purchased BPS Bioscience 72005
Description: Original loops with Phe/Trp and their Gly-derived analogs. Experimental EC50 values from inhibitory dose–response curves. Error bars indicate the mean ± SD, (n = 3). […]
SDS -Pages, buffers, and stain were purchased from Fisher
8. Immunoblocking ELISA Assay
Peptide inhibitor stock solutions were prepared in the concentration range of approximately 1-5 mM in DMSO. […]
plate was then washed and blocked with blocking buffer for 1 h at room temperature. Inhibitor solutions (ranging from 0.01 to 100 μM) and a blank solution (DMSO/PBS buffer) were added to designated wells. To initiate the […]
inhibitor solutions. After a 2 h incubation at room temperature, the plate was washed and blocked again for 10 min. Streptavidin-HRP (diluted at 1 : 1000) was added and incubated for 1 h at room temperature with gentle shaking. The plate was washed and blocked once more for 10 min. ELISA ECL substrate was added, and the resulting chemoluminescence was immediately measured in a luminometer (FLUOstar OPTIMA, BMG Labtech).
The luminescence value of the blank was subtracted from all readings according to the manufacturer's

[1] = Variable-temperature CD melting curves (CD-melts at 228±2 nm and 202±2 nm), individual and global two-state fits; format: physicochemical
Description: Recently, our laboratory brought forward a novel synthetic technology for the synthesis of acyclic β-hairpins with long loops. […] To compare hairpins’ stability, both regular (R) and bulged (B) scaffolds were crafted around a flexible 10-residue model loop (G4K2G4) and analyzed by CD (circular dichroism) spectroscopy (Fig. 2(A), see ESI, ^† Table S5). The […] structure of these model scaffolds 1avs.2a in solution were recorded in the far-UV CD spectra. […] The CD-exciton intensity was therefore used as a global probe to determine the %-folding of ADAPTins and to obtain melting curves corresponding to the hairpin fraying mechanism upon a gradual increase of temperature (0 to 95 °C).[68] […] In addition, NMR (nuclear magnetic resonance) chemical shifts were measured to determine variations in backbone […] structures (Fig. 2(B)). Secondary chemical shift deviations (CSDs) were calculated against random coil values[69] for both ADAPTin scaffolds 1vs.2 to verify that the hairpins were folded and if any variation of conformational rigidity exist within the loops. […]
Mass Spectrometer coupled to a Vanquish™ Neo UHPLC System (Thermo Scientific™). Peptide solutions for circular dichroism (CD) were prepared within a concentration range of 15-120 µM in a phosphate buffer (15 mM, […]
measured accurately using a JASCO V-670 spectrophotometer relied on the combined molar absorptivity of Trp (ε280 = 5580 M-1 .cm-1 per Trp) and Tyr (ε280 = 1280 M-1 .cm-1 per Tyr) to determine each sample's concentration.
CD spectra were recorded using a JASCO J-810 Spectropolarimeter equipped with a temperature controller module JASCO PFD-425S. Raw CD melting curves were processed in SpectraGryph, and fitting was performed in OriginPro 9.0 (Originlab Corporation, U.S.A.). NMR samples were prepared by reconstituting freeze -dried peptides (~ 1-5 mg) in mixture of water and DMSO -d6 (90:10 v/v) using 2,2-dimethyl-2-silapentane-5-sulfonate (DSS) as internal standard for chemical shifts (0 ppm), and spectra were recorded at 291 K (18 °C) unless otherwise stated. Chemical shifts ( δ) are reported in ppm. Samples for NMR experiments were prepared in a range of 3-10 mM of peptide in solution unless otherwise noted.

[2] = ELISA, mean of three independent experiments, read-out: EC50 Value
[3] = xlsx sheet of the peptide, individual fit of CD-melt

T1 sequence (Q15116 25-167 limits assumed): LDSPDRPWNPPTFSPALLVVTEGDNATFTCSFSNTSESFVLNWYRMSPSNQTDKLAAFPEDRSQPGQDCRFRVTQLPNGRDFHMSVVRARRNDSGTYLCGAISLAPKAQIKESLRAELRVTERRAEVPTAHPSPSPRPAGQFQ

Compound: C=CC(=O)NC[C@H](NC(=O)[C@H](CC(=O)O)NC(=O)[C@H](Cc1ccccc1)NC(=O)[C@H](CCCNC(=N)N)NC(=O)[C@H](Cc1ccc(O)cc1)NC(=O)[C@H](CC(=O)O)NC(=O)[C@H](CCCNC(=N)N)NC(=O)[C@H](CCCNC(=N)N)NC(=O)[C@H](C)NC(=O)[C@@H](NC(=O)[C@H](Cc1c[nH]c2ccccc12)NC(=O)[C@@H](N)CCCNC(=N)N)C(C)C)C(=O)NCC(=O)N[C@@H](Cc1ccccc1)C(=O)N[C@@H](CC(=O)O)C(=O)N[C@@H](Cc1ccc(O)cc1)C(=O)N[C@@H](Cc1c[nH]c2ccccc12)C(=O)N[C@H](C(=O)N[C@@H](Cc1c[nH]c2ccccc12)C(=O)N[C@@H](CCC(=O)O)C(=O)O)C(C)C [2cb] (H-RWVARRDYRFD[Dap](Acryloyl)GFDYWVWE-OH)
- EC50 (PD1:PDL1 interaction; [2]): 3980 nM

Compound: CSCC[C@H](NC(=O)[C@H](CC(=O)O)NC(=O)CNC(=O)[C@H](CCCNC(=N)N)NC(=O)[C@H](Cc1ccc(O)cc1)NC(=O)[C@H](CC(=O)O)NC(=O)[C@H](CCCNC(=N)N)NC(=O)[C@H](CCCNC(=N)N)NC(=O)[C@H](C)NC(=O)[C@@H](NC(=O)[C@H](Cc1c[nH]c2ccccc12)NC(=O)[C@@H](N)CCCNC(=N)N)C(C)C)C(=O)NCC(=O)N[C@@H](Cc1ccccc1)C(=O)N[C@@H](CC(=O)O)C(=O)N[C@@H](Cc1ccc(O)cc1)C(=O)N[C@@H](Cc1c[nH]c2ccccc12)C(=O)N[C@@H](Cc1cnc[nH]1)C(=O)N[C@@H](Cc1c[nH]c2ccccc12)C(=O)N[C@@H](CCC(=O)O)C(=O)O [2d] (H-RWVARRDYRGDMGFDYWHWE-OH)
- EC50 (PD1:PDL1 interaction; [2]): 5650 nM
- EC50 (PD1:PDL1 interaction; [PD1•PDL1] blocking EC50, Fig. 3B, cut-off bars of congeneric pairs (Phe/Trp vs Gly), n = 3): > 5000 nM

Compound: RWCAR-RDYRFDMGFD-YWGWE [Native, peptide 'Native', no fold by CD]
- fold by CD signature (in words) ([1]; no hairpin exciton, no fit possible): No fold

Compound: C=CC(=O)NCC[C@H](NC(=O)[C@H](CC(=O)O)NC(=O)[C@H](Cc1ccccc1)NC(=O)[C@H](CCCNC(=N)N)NC(=O)[C@H](Cc1ccc(O)cc1)NC(=O)[C@H](CC(=O)O)NC(=O)[C@H](CCCNC(=N)N)NC(=O)[C@H](CCCNC(=N)N)NC(=O)[C@H](C)NC(=O)[C@@H](NC(=O)[C@H](Cc1c[nH]c2ccccc12)NC(=O)[C@@H](N)CCCNC(=N)N)C(C)C)C(=O)NCC(=O)N[C@@H](Cc1ccccc1)C(=O)N[C@@H](CC(=O)O)C(=O)N[C@@H](Cc1ccc(O)cc1)C(=O)N[C@@H](Cc1c[nH]c2ccccc12)C(=O)N[C@H](C(=O)N[C@@H](Cc1c[nH]c2ccccc12)C(=O)N[C@@H](CCC(=O)O)C(=O)O)C(C)C [2ca] (H-RWVARRDYRFD[Dab](Acryloyl)GFDYWVWE-OH)
- EC50 (PD1:PDL1 interaction; [2]): 5220 nM

Compound: C=CC(=O)NC[C@H](NC(=O)CNC(=O)[C@H](CC(=O)O)NC(=O)[C@@H](NC(=O)[C@H](CC(N)=O)NC(=O)[C@H](CCSC)NC(=O)CNC(=O)[C@H](CCC(=O)O)NC(=O)[C@H](CCCNC(=N)N)NC(=O)[C@H](C)NC(=O)[C@@H](NC(=O)[C@H](Cc1c[nH]c2ccccc12)NC(=O)[C@@H](N)CCCNC(=N)N)C(C)C)[C@@H](C)O)C(=O)N[C@@H](Cc1ccccc1)C(=O)N[C@@H](CC(N)=O)C(=O)N[C@@H](Cc1ccc(O)cc1)C(=O)N[C@@H](Cc1c[nH]c2ccccc12)C(=O)N[C@H](C(=O)N[C@@H](Cc1c[nH]c2ccccc12)C(=O)N[C@@H](CCC(=O)O)C(=O)O)C(C)C [2pb] (H-RWVAREGMNTDG[Dap](Acryloyl)FNYWVWE-OH)
- EC50 (PD1:PDL1 interaction; [2]): 3040 nM

Compound: RWVA-RGGGGKKGGFD-YWVWE [2a, bulged (B) β-hairpin model scaffold]
- ΔGF0 ([1]; CD-melt at 228±2 nm, individual two-state Gibbs-Helmholtz fit (Origin 9.0), 0-95 °C, phosphate buffer 15 mM pH 6.5 ± MeOH): -0.90 ± 0.006 kcal/mol
- Tm ([1]; Table S5, individual fit, 228±2 nm): 44.8 oC
- Hairpin %-fold 291K ([1]; Table S5, individual fit, 291 K): 87 ± 1%
- Hairpin %-fold 310K ([1]; Table S5, individual fit, 310 K): 66 ± 1%
- -TΔSF0 ([1]; as E16): 9.87 ± 0.1 kcal/mol
- ΔCpF0 ([1]; as E16): -372 ± 10 cal.deg-1.mol-1
- ΔHF0 ([1]; as E16): -10.8 ± 0.1 kcal/mol
- melting temperature (TM) upshift vs regular hairpin 1a ([1]; calculated from CD-melts): about 10 °C
- DHm, fitted value from OriginPro [1, 3]: -18.1854 kcal/mol
- Tm, fitted value from OriginPro [1, 3]: 317.92 K

Continued by falling EC50 (PD1:PDL1 interaction; [2]), values first:

- EC50 (PD1:PDL1 interaction; [2]): 950 nM
Compound: C=CC(=O)NCC[C@H](NC(=O)CNC(=O)[C@H](CC(=O)O)NC(=O)[C@@H](NC(=O)[C@H](CC(N)=O)NC(=O)[C@H](CCSC)NC(=O)CNC(=O)[C@H](CCC(=O)O)NC(=O)[C@H](CCCNC(=N)N)NC(=O)[C@H](C)NC(=O)[C@@H](NC(=O)[C@H](Cc1c[nH]c2ccccc12)NC(=O)[C@@H](N)CCCNC(=N)N)C(C)C)[C@@H](C)O)C(=O)N[C@@H](Cc1ccccc1)C(=O)N[C@@H](CC(N)=O)C(=O)N[C@@H](Cc1ccc(O)cc1)C(=O)N[C@@H](Cc1c[nH]c2ccccc12)C(=O)N[C@H](C(=O)N[C@@H](Cc1c[nH]c2ccccc12)C(=O)N[C@@H](CCC(=O)O)C(=O)O)C(C)C [2pa] (H-RWVAREGMNTDG[Dab](Acryloyl)FNYWVWE-OH)

- EC50 (PD1:PDL1 interaction; [2]): 781 nM
Compound: CSCC[C@H](NC(=O)[C@H](CC(=O)O)NC(=O)CNC(=O)[C@H](CCCNC(=N)N)NC(=O)[C@H](Cc1ccc(O)cc1)NC(=O)[C@H](CC(=O)O)NC(=O)[C@H](CCCNC(=N)N)NC(=O)[C@H](CCCNC(=N)N)NC(=O)[C@@H](NC(=O)[C@@H](NC(=O)[C@H](Cc1c[nH]c2ccccc12)NC(=O)[C@@H](N)CCCNC(=N)N)C(C)C)C(C)C)C(=O)NCC(=O)N[C@@H](Cc1ccccc1)C(=O)N[C@@H](CC(=O)O)C(=O)N[C@@H](Cc1ccc(O)cc1)C(=O)N[C@@H](Cc1c[nH]c2ccccc12)C(=O)N[C@H](C(=O)N[C@@H](Cc1c[nH]c2ccccc12)C(=O)N[C@@H](CCC(=O)O)C(=O)O)C(C)C [2h] (H-RWVVRRDYRGDMGFDYWVWE-OH)

- EC50 (PD1:PDL1 interaction; [2]): 586 nM
Compound: CSCC[C@H](NC(=O)[C@H](CC(=O)O)NC(=O)[C@H](Cc1ccccc1)NC(=O)[C@H](CCCNC(=N)N)NC(=O)[C@H](Cc1ccc(O)cc1)NC(=O)[C@H](CC(=O)O)NC(=O)[C@H](CCCNC(=N)N)NC(=O)[C@H](CCCNC(=N)N)NC(=O)[C@H](C)NC(=O)[C@@H](NC(=O)[C@H](Cc1c[nH]c2ccccc12)NC(=O)[C@@H](N)CCCNC(=N)N)C(C)C)C(=O)NCC(=O)N[C@@H](Cc1ccccc1)C(=O)N[C@@H](CC(=O)O)C(=O)N[C@@H](Cc1ccc(O)cc1)C(=O)N[C@@H](Cc1c[nH]c2ccccc12)C(=O)N[C@@H](Cc1cnc[nH]1)C(=O)N[C@@H](Cc1c[nH]c2ccccc12)C(=O)N[C@@H](CCC(=O)O)C(=O)O [2e] (H-RWVARRDYRFDMGFDYWHWE-OH)

- EC50 (PD1:PDL1 interaction; [2]): 252 nM
Compound: CSCC[C@H](NC(=O)CNC(=O)[C@H](CCC(=O)O)NC(=O)[C@H](CCCNC(=N)N)NC(=O)[C@H](C)NC(=O)[C@@H](NC(=O)[C@H](Cc1c[nH]c2ccccc12)NC(=O)[C@@H](N)CCCNC(=N)N)C(C)C)C(=O)N[C@@H](CC(N)=O)C(=O)N[C@H](C(=O)N[C@@H](CC(=O)O)C(=O)N[C@@H](Cc1c[nH]c2ccccc12)C(=O)N[C@@H](Cc1ccc(O)cc1)C(=O)N[C@@H](Cc1ccccc1)C(=O)N[C@@H](CC(=O)O)C(=O)N[C@@H](Cc1ccc(O)cc1)C(=O)N[C@@H](Cc1c[nH]c2ccccc12)C(=O)N[C@@H](Cc1cnc[nH]1)C(=O)N[C@@H](Cc1c[nH]c2ccccc12)C(=O)N[C@@H](CCC(=O)O)C(=O)O)[C@@H](C)O [2n] (H-RWVAREGMNTDWYFDYWHWE-OH)

- EC50 (PD1:PDL1 interaction; [2]): 70 nM
Compound: CSCC[C@H](NC(=O)[C@H](CC(=O)O)NC(=O)[C@H](Cc1ccccc1)NC(=O)[C@H](CCCNC(=N)N)NC(=O)[C@H](Cc1ccc(O)cc1)NC(=O)[C@H](CC(=O)O)NC(=O)[C@H](CCCNC(=N)N)NC(=O)[C@H](CCCNC(=N)N)NC(=O)[C@@H](NC(=O)[C@@H](NC(=O)[C@H](Cc1c[nH]c2ccccc12)NC(=O)[C@@H](N)CCCNC(=N)N)C(C)C)C(C)C)C(=O)NCC(=O)N[C@@H](Cc1ccccc1)C(=O)N[C@@H](CC(=O)O)C(=O)N[C@@H](Cc1ccc(O)cc1)C(=O)N[C@@H](Cc1c[nH]c2ccccc12)C(=O)N[C@H](C(=O)N[C@@H](Cc1c[nH]c2ccccc12)C(=O)N[C@@H](CCC(=O)O)C(=O)O)C(C)C [2i] (H-RWVVRRDYRFDMGFDYWVWE-OH)
